This is an account of results in patent publication US4554272A, “Substituted quinazolino-1,4-benzodiazepin-6,9-diones and their preparation” (Merck & Co., Inc., priority 1985, dated 1985).

SMILES strings stand for the structures.

For experiment [1], the target named is T1, CCK receptor (brain, cerebral cortex) (Cavia porcellus, UniProt H0VZC5).
T1 construct: The cerebral cortex is dissected and used as a receptor source; from tissue; host or cells: cerebral cortex of male Hartley guinea pig, washed membrane suspension
T1 sequence (H0VZC5 1-426): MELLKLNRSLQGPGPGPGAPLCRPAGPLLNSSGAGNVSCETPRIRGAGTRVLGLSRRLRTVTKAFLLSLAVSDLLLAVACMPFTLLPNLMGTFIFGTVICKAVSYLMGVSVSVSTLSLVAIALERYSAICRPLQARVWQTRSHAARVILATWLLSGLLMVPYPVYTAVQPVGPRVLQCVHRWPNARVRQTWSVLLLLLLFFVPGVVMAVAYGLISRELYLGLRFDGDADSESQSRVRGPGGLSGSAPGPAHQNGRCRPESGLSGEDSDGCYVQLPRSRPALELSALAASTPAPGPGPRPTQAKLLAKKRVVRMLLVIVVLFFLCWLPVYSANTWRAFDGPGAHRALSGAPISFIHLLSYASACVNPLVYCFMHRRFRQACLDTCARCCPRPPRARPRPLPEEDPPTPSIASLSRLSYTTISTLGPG
The experiment is described as follows: CCK Receptor Binding (brain). Further details: species or system guinea pig (male Hartley). The settings on record: guinea pig cerebral cortex; 125I-CCK-33, pH 6.5, 25° C., 2 hours. The method, then: (§1) Screening of the novel compounds according to the present invention to determine biological activity and obtain an IC50 value for them (in order to identify significant CCK-antagonism) is accomplished using an ^125 I-CCK receptor binding assay and in vitro isolated tissue preparations. These tests involve the following:
(§2) CCK Receptor Binding (brain) Method
(§3) CCK-33 is radiolabeled and the binding is performed according to the description for the pancreas method, with modifications according to Saito et al., J. Neurochem., 37, 483-490, 1981.
(§4) Male Hartley guinea pigs (300-500 g) are sacrificed by decapitation, and the brains are removed and placed in ice-cold 50 mM Tris HCl (Trizma-7.4) [pH 7.4 at 25° C.]. The cerebral cortex is dissected and used as a receptor source and each gram of fresh guinea pig brain tissue is homogenized in 10 ml of Tris/Trizma buffer with a Brinkman polytron PT-10. The homogenates are centrifuged at 42,000 g for 15 minutes, then the resulting pellets are resuspended in 80 volumes of binding assay buffer (10 mM N-2-hydroxyethyl-piperazine-N'-2-ethanesulfonic acid (HEPES), 5 mM MgCl2, 1 mM ethylene glycol-bis(β-amino-ethyl-ether-N,N'-tetraacetic acid (EGTA), 0.4% BSA and 0.25 mg/ml bacitracin, pH 6.5).
(§5) The remainder of the inding assay method is as described for the pancreas method, except that the reaction mixtures are incubated at 25° C. for 2 hours before […].
(§6) Representative formula I compounds listed were tested as CCK-antagonists (in I-CCK-8 pancreas and ^125 I-CCK Brain assays) with results, as tabulated in the following table.

The target of experiment [2] is T2, CCK receptor (pancreas) (Rattus norvegicus, UniProt P30551).
T2 construct: The whole pancreas of a male Sprague-Dawley rat; from tissue; host or cells: whole pancreas of male Sprague-Dawley rat, washed membrane suspension
T2 sequence (P30551 1-444): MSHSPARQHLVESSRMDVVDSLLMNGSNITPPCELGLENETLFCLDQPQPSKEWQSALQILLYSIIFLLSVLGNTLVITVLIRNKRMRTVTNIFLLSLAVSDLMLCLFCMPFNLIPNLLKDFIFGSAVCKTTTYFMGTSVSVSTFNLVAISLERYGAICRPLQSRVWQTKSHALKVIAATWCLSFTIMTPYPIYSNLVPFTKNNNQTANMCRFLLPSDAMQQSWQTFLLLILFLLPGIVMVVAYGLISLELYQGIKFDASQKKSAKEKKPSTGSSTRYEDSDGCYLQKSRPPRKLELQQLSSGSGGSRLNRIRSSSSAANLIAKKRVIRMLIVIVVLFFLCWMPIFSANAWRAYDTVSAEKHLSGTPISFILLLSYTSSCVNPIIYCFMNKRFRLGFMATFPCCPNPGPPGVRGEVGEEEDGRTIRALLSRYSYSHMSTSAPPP
Kind of experiment: CCK Receptor Binding (pancreas). Also on record: species or system rat (male Sprague-Dawley). The note with it: for IC50: rat pancreas membranes, 125I-CCK-33, 37° C., 30 minutes, read-out: I-CCK-8 Pancreas IC50.
Description: as §1
CCK Receptor Binding (pancreas) Method
CCK-33 is radiolabeled with ^125 I-Bolton Hunter reagent (2000 Ci/mmole), as described by Sankara et al. (J. Biol. Chem., 254, 9349-9351, 1979). Receptor binding is performed according to Innis and Snyder (Proc. Natl. Acad. Sci., 77, 6917-6921, 1980), with the minor modification of adding the additional protease inhibitors, phenylmethane sulfonyl fluoride and o-phenanthroline, which have no effect on the ^125 I-CCK receptor binding assay.
The whole pancreas of a male Sprague-Dawley rat (200-350 g), which has been sacrificed by decapitation, is dissected free of fat tissue and homogenized in 20 volumes of ice-cold 50 mM Tris HCl (pH 7.7 at 25° C.) with a Brinkman Polytron PT-10. The homogenates are centrifuged at 48,000 g for 10 minutes, then the resulting pellets are resuspended in Tris Buffer, centrifuged as above, and resuspended in 200 volumes of binding assay buffer (50 mM Tris HCl, pH 7.7 at 25° C., 5 mM dithiothreitol, 0.1 mM bacitracin, 1.2 mM phenylmethane sulfonyl fluoride and 0.5 mM o-phenanthroline).
For the binding assay, 25 μl of buffer (for total binding), or unlabeled CCK-8 sulfate sufficient to give a final concentration of 1 μM of CCK-8 (for nonspecific binding), or the compounds of the formula of the compounds according to the instant invention (for determination of antagonism to ^125 I-CCK binding) and 25 μl of ^125 I-CCK-33 (30,000-40,000 cpm), are added to 450 μl of the membrane suspensions in microfuge tubes. All assays are run in duplicate or triplicate, and the reaction mixtures are incubated at 37° C. for 30 minutes and centrifuged in a Beckman Microfuge (4 minutes) immediately after adding 1 ml of ice-cold incubation buffer. The supernatant is aspirated and discarded, and the pellets are counted with a Beckman Gamma 5000.
as §6

The test system of experiment [3] is CCK receptor (brain, cerebral cortex). The experiment is described as follows: CCK Receptor Binding (brain). Further details: species or system guinea pig (male Hartley). The note with it: in words, comment on Table 1 (pancreas vs brain); especially vs formula Ia and Example 13. As to the method: as §1, §2, §3, §4, §5, §6

What is called IC50 is the concentration that gives 50% inhibition. Take `O=C1Nc2ccccc2-c2nc3ccccc3c(=O)n2[C@H]1Cc1c[nH]c2ccccc12` [*, 7β-[(1H-indol-3-yl)methyl]quinazoline(3,2-D)(1,4)benzodiazepin-6,9(5H,7H)-dione, reference compound]: the figures for the 50% inhibitory concentration (IC50) in experiment [1] and in experiment [2] were 110 µM and 76 µM, respectively.
In the case of `O=C1Nc2ccccc2-c2nc3ccccc3c(=O)n2[C@@H]1Cc1c[nH]c2ccccc12` [Example 13, 7α-[(1H-indol-3-yl)methyl]quinazolino(3,2-D)-1,4-benzodiazepin-6,9(5H,7H)-dione hydrate], the results for the IC50 in experiment [1] and in experiment [2] were 100 µM and 67 µM, respectively. For the same molecule, in experiment [2] (in words, comment on Table 1 (pancreas and brain binding)), the “potency compared with the formula Ia compound” value is on record as “improved”.
With `C[C@H]1C(=O)Nc2ccccc2-c2nc3ccccc3c(=O)n21` [Example 14, 7β-methylquinazolino(3,2-D)(1,4)benzodiazepin-6,9-(5H,7H)-dione], the IC50 in experiment [1] and in experiment [2] was 100 µM each time.
With `O=C1Cn2c(nc3ccccc3c2=O)-c2ccccc2N1` [Example 15, quinazolino(3,2-D)(1,4)benzodiazepin-6,9(5H,7H)-dione], the half-maximal inhibitory concentration (IC50) in experiment [1] and in experiment [2] was 100 µM in each case.
`O=C1Nc2ccccc2-c2nc3ccccc3c(=O)n2[C@H]1Cc1ccc(O)cc1` [Example 16, 7β-[(4-hydroxyphenyl)methyl]quinazolino(3,2-D)(1,4)-benzodiazepin-6,9(5H,7H)-dione hydrate]: the IC50 in experiment [1] and in experiment [2] was 100 µM throughout.
For the molecule `CN1C(=O)[C@H](Cc2c[nH]c3ccccc23)n2c(nc3ccccc3c2=O)-c2ccccc21` [Example 19, 5-methyl-7β-[(1H-indol-3-yl)methyl]quinazolino(3,2-D)(1,4)benzodiazepin-6,9(5H,7H)-dione hydrate], the results for the IC50 in experiment [1] and in experiment [2] were 51 µM and 104 µM, respectively. In addition, the “selectivity compared with the other compounds” value in experiment [3] is on record as “substantial change in selectivity”.
